Tests used:
[1] = system: Wheat seeds (Triticum aestivum); assay: Wheat seed germination; format: in vivo; settings: 0.5% w/w in USA I water
Experimental: Wheat seeds (Triticum aestivum) were germinated using USA I, USA II, and BP I waters described for Example 2. Germination rate using un-supplemented (control) water was compared to that with the same water variously supplemented with a cyclodextrin component, and/or a bioactive agent, as an active component of cellular hydration. For each condition, ten seeds were placed in continuous water contact in a Petri-type dish kept at 25 C in 12 hr light/dark cycles. Photometric images were recorded on days 1 to 6 after seeding. The percentage of seeds germinated was calculated and compared as a function of time and of the applied additive concentrations.
Water samples for seed germination were used alone with no additive, or containing cyclodextrins, or containing clathrate inclusion complexes of cyclodextrin with L-arginine or with nicotinamide (both obtained from Sigma Chemical Co.; St. Louis, MO), or with L-carnitine (from Lonza AG; Switzerland). […] Additive solutions were prepared fresh on the day of germination start.
Parent cyclodextrins α-cyclodextrin (ACD), β-cyclodextrin (BCD), and γ-cyclodextrin (GCD), were obtained from Wacker Chemie (Munich, Germany). The following derivatized cyclodextrins were obtained from Cyclolab Ltd. (Budapest, Hungary): hydroxypropylated-beta-cyclodextrin (DS-3)(HPBCD), carboxymethylated-β-cyclodextrin (DS-3.5)(CMBCD), 2-hydroxy-3-N,N,N-trimethylamino)propyl-β-cyclodextrin chloride (DS-3.6)(QABCD).
Germination kinetics in control and additive-modified water under identical conditions were quantified as the percentage of the seeds having a sprout. Each determination consisted of 100 seeds for each parameter. Results are reported in Table 5, below, and in FIGS. 11-13. • A) Cyclodextrin/L-Arg Inclusion Complex Increases Seed Germination.

[2] = Surface tension of test solutions; format: physicochemical; settings: purified water
Experimental: (§1) 1:1 mol/mol stoichiometry complexes were prepared for the experiment. Nicotinic acid/alpha-CD complex was prepared by dissolving 11.22 g nicotinic acid and 98.63 g alpha-CD (89.66 g on dry basis) in 700 ml purified water. Nicotinamide/alpha-CD complex was prepared by dissolving 5.57 g nicotinamide and 49.3 g alpha-CD (44.4 g on dry basis) in 350 ml purified water and L-arginine/alpha-CD complex was prepared by dissolving 15.18 g L-arginine and 94.26 g alpha-CD (85.69 g on dry basis) in 700 ml purified water. Further, for all the three complexes, the liquid was frozen in dry ice bath and lyophilized. The dry lyophilizate was ground and sieved.
(§2) Clarity, pH, conductivity, density, viscosity, turbidity, surface tension and osmolality were determined in solutions prepared with purified water. […]

C. elegans = C. elegans lifespan Test B (Example 6); format: in vivo
Experimental: C. elegans study performed for the present disclosure is a follow-up and repetition of the observations carried out earlier (referred as Test A here). The results of the current C. elegans study (Test B) were recorded with higher number of animals compared to the Test A (50 worms per treated groups versus 130 worms per groups). Nematodes were maintained and propagated on Nematode Growth Medium—(NGM) containing plates and fed with Escherichia coli OP50 bacteria. The C. elegans strain used in this study is Bristol (N2) as wild-type. FIG. 21, illustrates the lifespan of control and alpha-cyclodextrin-treated worms. The control C. elegans lived on a medium made with tap water. The treated worms were maintained on culture media made with 0.1% alpha-cyclodextrin, 0.1% alpha-CD/nicotinic acid and 0.1% alpha-CD/arginine complex containing tap water.

[3] = Turbidity of test solutions; format: physicochemical; settings: purified water (reference), 0.05%
Experimental: as §1, §2

[4] = Viscosity of test solutions; format: physicochemical; settings: purified water
Experimental: as §1
Clarity, pH, conductivity, density, viscosity, turbidity, surface tension and osmolality were determined in solutions prepared with purified water.

SMILES: OC[C@H]1O[C@@H]2O[C@H]3[C@H](O)[C@@H](O)[C@@H](O[C@H]4[C@H](O)[C@@H](O)[C@@H](O[C@H]5[C@H](O)[C@@H](O)[C@@H](O[C@H]6[C@H](O)[C@@H](O)[C@@H](O[C@H]7[C@H](O)[C@@H](O)[C@@H](O[C@H]1[C@H](O)[C@H]2O)O[C@@H]7CO)O[C@@H]6CO)O[C@@H]5CO)O[C@@H]4CO)O[C@@H]3CO [Alpha Cyclodextrin, α-cyclodextrin]
- wheat seed germination, percentage of the seeds having a sprout ([1]; day 0): 0%
- wheat seed germination, percentage of the seeds having a sprout ([1]; day 1): 11%
- wheat seed germination, percentage of the seeds having a sprout ([1]; day 2): 18%
- wheat seed germination, percentage of the seeds having a sprout ([1]; day 3): 68%
- wheat seed germination, percentage of the seeds having a sprout ([1]; day 4): 92%
- Surface Tension ([2]; 0.05%): 72 mN · m^−1
- Surface Tension ([2]; 0.10%): 72 mN · m^−1
- Surface Tension ([2]; 1.00%): 72 mN · m^−1
- Surface Tension ([2]; 2.00%): 73 mN · m^−1
- Fraction of worms alive (C. elegans; Test B, day 15, 0.1%, 130 worms per group, tap water media): 20%
- effect on lifespan (C. elegans; all three studied concentrations (0.05, 0.1, 0.5%)): significant
- average lifespan (C. elegans; control animals 12.33 days): 13.25 days
- Turbidity (Abs, λ = 410 nm) [3]: 0.003 Abs
- Viscosity (25 C.) ([4]; 0.05%): 0.91 cP
- Viscosity (25 C.) ([4]; 0.10%): 0.92 cP
- Viscosity (25 C.) ([4]; 1.00%): 0.97 cP
- Viscosity (25 C.) ([4]; 2.00%): 1.06 cP

From patent US20250332096A1, “BEVERAGE FORMULATION AND METHOD OF PROMOTING CELLULAR HYDRATION BY ENHANCING INTRACELLULAR PERMEATION” (Eastpond Laboratories Limited, priority 2024, published 2025)
